In patent US20120165309A1, “HETERO RING DERIVATIVE” (Astellas Pharma Inc., priority 2009, published 2012):

Tests used:
human PI3Kδ enzyme = molecular target: T1, human PI3Kδ enzyme (Homo sapiens, UniProt O00329); experiment: PI3Kδ enzyme inhibitory activity (PI3-Kinase HTRF Assay kit); type: biochemical; conditions: human PI3Kδ 10 ng/well, ATP 30 μM, PIP2 10 μM, room temperature 30 minutes
T1 construct: purchased Millipore Corporation 14-604
Method: 1. PI3Kδ Enzyme Inhibitory Activity
For the experiment, a PI3-Kinase HTRF Assay kit (Millipore Corporation, Catalogue No. 33-016) and a human PI3Kδ enzyme (Millipore Corporation, Catalogue No. 14-604) were used. The measurement method was in accordance with the appended instructions. The overview thereof is as follows.
PI3Kδ (10 ng/well), phosphatidylinositol-4,5-bisphosphate (10 μM), ATP (30 μM), and the test compound were mixed in a 384-well plate (total 20 μL), and incubated at room temperature for 30 minutes. EDTA and biotinylated phosphatidylinositol-3,4,5-triphosphate were added thereto to stop the reaction. Thereafter, a Europium labeled anti-GST antibody, a GST bond GRP1 PH domain, and streptavidin-APC were added thereto, followed by incubation overnight. An HTRF ratio was measured using an HTRF plate reader. The IC50 value of the compound was calculated, taking the inhibition rate without addition of the enzyme as 100% and the inhibition rate without addition of the test compound as 0%, by means of a logistic method.
(§1) In the Table, Ex represents Example Compound No. as described later, PI3Kδ represents the IC50 value (nM) of a PI3Kδ enzyme inhibitory activity, and PI3Kα represents the IC50 value (nM) of a PI3Kα enzyme inhibitory activity.

Human PI3Kα = molecular target: T2, Human PI3Kα (Homo sapiens, UniProt P42336); experiment: PI3Kα enzyme inhibitory activity (Kinase-Glo Plus luminescence); type: biochemical; conditions: Human PI3Kα 12 ng/well, phosphatidylinositol 0.2 μg/well, 37° C. for 3 hours
T2 construct: purchased Millipore Corporation 14-602
Method: 2. PI3Kα Enzyme Inhibitory Activity
Human PI3Kα (12 ng/well, Millipore Corporation, Catalogue No. 14-602), phosphatidylinositol (0.2 μg/well), and the test compound were mixed in a 384-well plate in a reaction buffer (50 mM Hepes, 10 mM NaCl, 10 mM MgCl2, 2 mM EGTA, 2 mM DTT, pH 7.3) (total 10 μl), and incubated at 37° C. for 3 hours. After the reaction, 10 μL of a Kinase-Glo Plus reagent (Promega, Catalogue No. V3772) was added thereto, and a luminescence was measured with a luminometer. The IC50 value of the compound was calculated, taking the inhibition rate without addition of the enzyme as 100% and the inhibition rate without addition of the test compound as 0%, by a logistic method.
as §1

[1] = system: Spleen cells (B cell proliferation); experiment: Rat B cell proliferation inhibition test (anti-rat IgM, [3H]thymidine); type: cell-based; conditions: anti-rat IgM 3 μg/well, 48 hours culture, [3H]thymidine uptake
Method: 4. Rat B Cell Proliferation Inhibition Test
Spleen cells (1.0×10^5 cells/well) prepared from male LEW/CrlCrlj rats (Charles River Laboratories, Japan, Inc.), mouse F(ab′)2 fragment anti-rat IgM (3 μg/well, SouthernBiotech Associates, Inc., Catalogue No. 3082-14) and the test compound dissolved in DMSO (final DMSO concentration 0.1%) were mixed in a 96-well plate using a 10% FCS-containing RPMI-1640 culture medium (total 200 μL). They were cultured in a CO2 incubator for 48 hours and [^3H]thymidine (925 GBq/mmol, Moravek Biochemicals, Inc., Catalogue No. MT6038) was added thereto at 0.037 MBq/well at 4 hours before completion of culture. Cells were harvested in a GF/C glass filter using a cell harvester, and a radioactivity on the filter was measured using a liquid scintillation counter. The IC50 value of the compound was calculated, taking the dpm (disintegration per minute) without addition of IgM as an inhibition rate of 100% and the dpm without addition of the test compound as an inhibition rate of 0%, by a logistic method.

T2 sequence (P42336 whole entry): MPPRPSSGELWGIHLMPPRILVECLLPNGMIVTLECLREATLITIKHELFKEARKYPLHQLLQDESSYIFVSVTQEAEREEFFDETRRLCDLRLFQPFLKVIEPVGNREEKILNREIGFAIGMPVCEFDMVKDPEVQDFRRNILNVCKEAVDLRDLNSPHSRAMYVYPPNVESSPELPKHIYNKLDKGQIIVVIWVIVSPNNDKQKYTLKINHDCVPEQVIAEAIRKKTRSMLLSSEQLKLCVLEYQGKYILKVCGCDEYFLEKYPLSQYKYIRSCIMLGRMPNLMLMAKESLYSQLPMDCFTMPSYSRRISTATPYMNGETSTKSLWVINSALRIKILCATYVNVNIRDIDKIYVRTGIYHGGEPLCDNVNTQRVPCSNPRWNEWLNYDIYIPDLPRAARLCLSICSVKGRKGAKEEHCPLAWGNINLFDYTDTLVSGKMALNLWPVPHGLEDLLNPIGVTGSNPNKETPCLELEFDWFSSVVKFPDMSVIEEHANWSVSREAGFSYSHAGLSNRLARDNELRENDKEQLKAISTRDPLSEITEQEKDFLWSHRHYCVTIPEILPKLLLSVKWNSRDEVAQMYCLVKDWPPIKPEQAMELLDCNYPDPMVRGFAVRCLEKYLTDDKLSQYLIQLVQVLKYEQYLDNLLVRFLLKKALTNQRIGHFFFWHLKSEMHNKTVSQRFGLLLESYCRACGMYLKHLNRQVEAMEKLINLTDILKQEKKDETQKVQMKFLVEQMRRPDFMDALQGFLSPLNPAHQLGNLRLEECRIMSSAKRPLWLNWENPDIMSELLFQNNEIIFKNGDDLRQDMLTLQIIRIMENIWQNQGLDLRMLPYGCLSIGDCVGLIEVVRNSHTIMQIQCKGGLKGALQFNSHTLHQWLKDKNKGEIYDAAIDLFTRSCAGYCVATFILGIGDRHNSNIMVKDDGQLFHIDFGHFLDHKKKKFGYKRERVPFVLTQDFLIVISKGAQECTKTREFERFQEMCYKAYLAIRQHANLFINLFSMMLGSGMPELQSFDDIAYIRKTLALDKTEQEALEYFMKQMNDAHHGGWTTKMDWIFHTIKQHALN
T2 sequence (P27986 whole entry partner): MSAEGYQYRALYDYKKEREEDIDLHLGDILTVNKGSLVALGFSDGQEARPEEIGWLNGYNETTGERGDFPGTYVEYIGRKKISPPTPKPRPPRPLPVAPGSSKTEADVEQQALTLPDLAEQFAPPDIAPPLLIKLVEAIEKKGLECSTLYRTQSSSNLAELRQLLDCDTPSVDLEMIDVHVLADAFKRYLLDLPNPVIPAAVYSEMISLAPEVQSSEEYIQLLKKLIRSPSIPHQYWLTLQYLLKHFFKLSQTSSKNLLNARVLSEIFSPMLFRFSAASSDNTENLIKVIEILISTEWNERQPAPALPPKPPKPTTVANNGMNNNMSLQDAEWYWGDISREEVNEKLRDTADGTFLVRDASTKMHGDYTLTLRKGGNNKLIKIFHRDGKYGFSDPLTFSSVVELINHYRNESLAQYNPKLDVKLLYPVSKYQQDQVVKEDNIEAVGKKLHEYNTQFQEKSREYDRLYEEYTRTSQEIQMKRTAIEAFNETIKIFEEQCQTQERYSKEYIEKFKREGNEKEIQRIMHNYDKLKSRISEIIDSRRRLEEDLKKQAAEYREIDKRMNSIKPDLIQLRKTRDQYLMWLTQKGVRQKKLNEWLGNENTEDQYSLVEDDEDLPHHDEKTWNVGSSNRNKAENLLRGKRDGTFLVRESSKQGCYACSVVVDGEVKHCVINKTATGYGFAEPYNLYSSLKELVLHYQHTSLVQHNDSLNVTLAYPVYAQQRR
T1 sequence (O00329 whole entry): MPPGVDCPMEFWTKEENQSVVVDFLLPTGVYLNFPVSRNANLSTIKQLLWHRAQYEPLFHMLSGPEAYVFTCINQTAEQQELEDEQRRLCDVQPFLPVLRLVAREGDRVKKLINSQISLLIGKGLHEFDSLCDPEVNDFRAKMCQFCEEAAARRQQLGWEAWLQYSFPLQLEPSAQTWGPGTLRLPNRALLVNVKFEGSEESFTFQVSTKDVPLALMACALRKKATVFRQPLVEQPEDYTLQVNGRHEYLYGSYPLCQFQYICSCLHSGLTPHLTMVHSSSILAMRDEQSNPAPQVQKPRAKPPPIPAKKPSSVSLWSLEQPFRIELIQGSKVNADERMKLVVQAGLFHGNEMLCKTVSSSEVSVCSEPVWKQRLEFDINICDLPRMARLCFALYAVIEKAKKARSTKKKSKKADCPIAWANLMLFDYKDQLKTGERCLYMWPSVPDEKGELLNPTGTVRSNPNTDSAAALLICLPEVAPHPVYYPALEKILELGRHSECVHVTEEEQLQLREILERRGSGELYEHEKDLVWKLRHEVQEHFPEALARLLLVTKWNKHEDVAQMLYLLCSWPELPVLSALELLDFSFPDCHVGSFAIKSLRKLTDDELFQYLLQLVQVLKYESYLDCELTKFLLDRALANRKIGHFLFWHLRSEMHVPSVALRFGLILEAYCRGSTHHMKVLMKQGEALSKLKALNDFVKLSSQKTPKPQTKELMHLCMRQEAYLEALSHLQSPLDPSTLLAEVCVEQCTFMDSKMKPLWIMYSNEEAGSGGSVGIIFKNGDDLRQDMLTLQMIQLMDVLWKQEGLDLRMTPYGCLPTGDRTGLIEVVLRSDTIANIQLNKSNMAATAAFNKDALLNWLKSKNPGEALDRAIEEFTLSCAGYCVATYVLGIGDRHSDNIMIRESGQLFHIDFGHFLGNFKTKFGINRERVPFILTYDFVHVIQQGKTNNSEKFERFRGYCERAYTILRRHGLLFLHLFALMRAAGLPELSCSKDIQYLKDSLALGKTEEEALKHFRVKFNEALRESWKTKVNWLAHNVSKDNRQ
T1 sequence (P27986 whole entry partner): as the sequence (P27986 whole entry partner) above

Row | Compound | IC50 (human PI3Kδ enzyme) [nM] | IC50 (Human PI3Kα) [nM] | IC50 [1] [nM]
1 | FC[C@H]1CCCN1[C@H]1CC[C@@H](CNc2cc(-n3c(C(F)F)nc4ccccc43)nc(N3CCOCC3)n2)CC1 [Example 510] | 36 | > 10000 | 18
2 | COC[C@@H]1CCCN1C1CCC(CNc2nc(N3CCOCC3)cc(-n3c(C(F)F)nc4ccccc43)n2)CC1 (stereo partly shown) [Example 456] | 13 | 1800 | 1.1
3 | COCCN(C)[C@H]1CC[C@H](CNc2cc(-n3c(C(F)F)nc4ccccc43)nc(N3CCOCC3)n2)CC1 [Example 497] | 16 | – | 2.1
4 | CC(C)(O)CN(CC1CCC1)[C@H]1CC[C@H](CNc2nc(N3CCOCC3)cc(-n3c(C(F)F)nc4ccccc43)n2)CC1 [Example 441] | 15 | 5900 | 4.2
5 | FC(F)c1nc2ccccc2n1-c1cc(NC[C@H]2CC[C@H](N3CCC[C@H]3CN3CCCC3)CC2)nc(N2CCOCC2)n1 [Example 527] | 14 | 5700 | 2.8
6 | CCN(CC(C)(C)O)[C@H]1CC[C@H](CNc2nc(N3CCOCC3)cc(-n3c(C(F)F)nc4ccccc43)n2)CC1 [Example 385] | 21 | – | 1.9
7 | CC(C)=CCN(CC(C)(C)O)[C@H]1CC[C@H](CNc2nc(N3CCOCC3)cc(-n3c(C(F)F)nc4ccccc43)n2)CC1 [Example 449] | 14 | 1300 | 2.2
8 | CC(C)C(O)CN(C)[C@H]1CC[C@H](CNc2nc(N3CCOCC3)cc(-n3c(C(F)F)nc4ccccc43)n2)CC1 (stereo partly shown) [Example 398] | 32 | 3400 | 2.3
9 | C=CCN(CC(C)(C)O)[C@H]1CC[C@H](CNc2nc(N3CCOCC3)cc(-n3c(C(F)F)nc4ccccc43)n2)CC1 [Example 442] | 10 | 2700 | 1.2
10 | CCN(CCOC)[C@H]1CC[C@H](CNc2nc(N3CCOCC3)cc(-n3c(C(F)F)nc4ccccc43)n2)CC1 [Example 363] | 18 | 1400 | 1.4
11 | CN(CC(C)(C)O)[C@H]1CC[C@H](CNc2cc(-n3c(C(F)F)nc4ccccc43)nc(N3CCOCC3)n2)CC1 [Example 495] | 14 | 6700 | 1.7

Stronger by IC50 (human PI3Kδ enzyme), values ahead:

Row | IC50 (human PI3Kδ enzyme) [nM] | IC50 (Human PI3Kα) [nM] | Compound | IC50 [1] [nM]
12 | 9.7 | > 3000 | CN(CCO)[C@H]1CC[C@H](CNc2nc(N3CCOCC3)cc(-n3c(C(F)F)nc4ccccc43)n2)CC1 [Example 274] | 5.5
13 | 8.1 | 1700 | CCN(C(C)C(C)(C)O)[C@H]1CC[C@H](CNc2nc(N3CCOCC3)cc(-n3c(C(F)F)nc4ccccc43)n2)CC1 (stereo partly shown) [Example 471] | 1.3
14 | 7 | 3400 | CC(N(C)[C@H]1CC[C@H](CNc2nc(N3CCOCC3)cc(-n3c(C(F)F)nc4ccccc43)n2)CC1)C(C)(C)O (stereo partly shown) [Example 445] | 0.72
15 | 6 | 3600 | CCN(CC)[C@H]1CC[C@H](CNc2nc(N3CCOCC3)cc(-n3c(C(F)F)nc4ccccc43)n2)CC1 [Example 424] | 1.7
16 | 5.5 | 1700 | COCCN(C1CC1)[C@H]1CC[C@H](CNc2nc(N3CCOCC3)cc(-n3c(C(F)F)nc4ccccc43)n2)CC1 [Example 246] | 2.1
17 | 5.3 | 2900 | COCC(C)N(C)[C@H]1CC[C@H](CNc2nc(N3CCOC[C@@H]3C)cc(-n3c(C(F)F)nc4ccccc43)n2)CC1 (stereo partly shown) [Example 447] | 0.77
18 | 3.5 | 3100 | COC[C@@H]1CCCN1[C@H]1CC[C@H](CNc2cc(-n3c(C(F)F)nc4ccccc43)nc(N3CCOCC3)n2)CC1 [Example 513] | 0.64
19 | 2.6 | 2500 | COCCN(CC1CC1)[C@H]1CC[C@H](CNc2nc(N3CCOCC3)cc(-n3c(C(F)F)nc4ccccc43)n2)CC1 [Example 271] | 5.5
20 | 1.5 | 2600 | FC[C@@H]1CCCN1[C@H]1CC[C@H](CNc2cc(-n3c(C(F)F)nc4ccccc43)nc(N3CCOCC3)n2)CC1 [Example 484] | 2.2
